Source: patent US9650405B2, “Modified sophorolipids as oil solubilizing agents” (Polytechnic Institute of New York University, priority 2010, dated 2017)

Legend:
[1] = Crude oil emulsification activity (turbidity at 610 nm); details: emulsifier 1 mg/mL
Method: Emulsification activity was assessed using Louisiana Crude, Arabian Light Crude, and Prudhoe Bay Crude as the oil phase. A 2 mL solution with emulsifier concentration of 1 mg/mL was prepared. A crude oil (10 mg) was added to the emulsifier aqueous solution, the mixture was vortexed for one minute and the emulsified mixture was allowed to stand for 20 minutes. Emulsification activity was determined by measuring turbidity of the emulsion mixture in a spectrophotometer at 610 nm. The results obtained using SL-ethyl ester, SL-butyl ester, the natural sophorolipid mixture and Triton X-100 as emulsifiers are expressed as D610 and are listed in Table 8. […] Furthermore, a remarkable improvement in emulsification activity was obtained for SL-butyl ester relative to the natural sophorolipid mixture. These comparative results for emulsification of Louisiana Crude, Arabian Light Crude, and Prudhoe Bay Crude oil phase could not be anticipated by one skilled in the art.

[2] = Crude oil clearing/displacement activity; details: 20 μL of 1 mg/mL solution
Method: Oil cleaning assays were performed using Louisiana Crude, Arabian Light Crude, and Prudhoe Bay Crude as the oil phase. In one study, the oil clearing/displacement activity of MSLs were assessed using a crude oil layer on top of sea water in order to simulate oil spill type conditions. Sea water (20 mL) was transferred to plastic Petri dishes and 20 μL of a crude oil type was added on top of the water to create an oil layer. Subsequently, a 20 μL aliquot of MSL solution (1 mg/mL) was added dropwise to the top of the oil layer. The instantaneous formation of an oil clearing zone as well as the diameter of the clearing zone was determined as a function of the dispersant used. […] Furthermore, the oil displacement activity of SL-ethyl ester and SL-butyl ester was slightly higher than Triton-X-100 for Arabian Light crude.

[3] = MSL combination lemon oil emulsions, high shear homogenizer; assay type: physicochemical; details: 5 weight % surfactant, 1 weight % lemon oil, one week at 25° C.
Method: In addition to testing single MSL emulsification through tracking nanoemulsion stability, MSL combinations were investigated. These emulsions were processed with a high shear homogenizer at 13,500 rpm. One example of this MSL combination formulation included 5 weight % surfactant, 1 weight % lemon oil, and 94% deionized water. The pure form of this formulation included 5 weight % SL-hexyl ester. The combination form of this formulation included 2.5 weight % SL-hexyl ester and 2.5 weight % SL-ethyl ester. […] The size of droplets within this emulsion was 2.5 μm. […] The size of droplets within the combination emulsion was 8.4 nm.

[4] = Lemon oil solubilization, sonication, droplet size by dynamic light scattering; assay type: physicochemical
Method: MSL's used in this example are SL-hexyl ester (16), SL-octyl ester SL (17), and SL-dodecyl ester (18). To test the MSL capacity for lemon oil solubilization, the volume ratio of water to lemon oil, the concentration of surfactant, and the homogenization time (using a sonicator as the means of homogenization) were varied. Concentration of surfactant is calculated on a w/w basis relative to the mass of water being used. To form emulsions, the MSL or other surfactant is first dissolved in the water, oil is added to the solution, and finally the contents of the water/surfactant+oil system is sonicated. Subsequently, the emulsion is allowed to settle for 24 hours at 25° C. before measurements or visual observations are made.
To evaluate the stability of lemon oil solubilization, photographs of emulsions were recorded daily (after the initial 24 hours). Visual observations consisted of assessing solution clarity, extent of creaming and whether oil separation occurs. After selected time periods measurement of emulsion droplet size was performed by dynamic light scattering, which gives an average droplet size in the solution. […] If the emulsion had creamed (separated into two discreet emulsion layers) the average droplet size for each emulsion layer was determined. The results of this study are listed in Table 6, where the first number represents average droplet size in the top emulsion layer and the second represents the average droplet size in the bottom emulsion layer. […] A better performing emulsifier for this study is defined as functioning to form emulsions with smaller average particle size after the aging period.

[5] = lemon oil/water 1/99, sonication 120 sec, 0.5 wt %, 1 Month
[6] = lemon oil/water 5/95, sonication 60 sec, 0.25 weight-%, 1 Month
[7] = lemon oil/water 5/95, sonication 60 sec, 1 weight-%, 1 Month
[8] = lemon oil/water 5/95, sonication 60 sec, 1 weight-%, 1 Week
[9] = lemon oil/water 5/95, sonication 120 sec, 0.25 weight-%, 1 Month
[10] = lemon oil/water 5/95, sonication 120 sec, 0.5 weight-%, 1 Month
[11] = lemon oil/water 5/95, sonication 120 sec, 0.5 weight-%, 1 Week
[12] = lemon oil/water 5/95, sonication 120 sec, 1 weight-%, 1 Month
[13] = lemon oil/water 5/95, sonication 120 sec, 1 weight-%, 1 Week

## CCCCOC(=O)CCCCCCCC=CCCCCCCC(C)OC1OC(CO)C(O)C(O)C1OC1OC(CO)C(O)C(O)C1O (centres unmarked) [Compound 8, SL-Butyl Ester]
[1]; Arabian Crude
  Emulsification activity (D610): 1.77
[1]; Louisiana Crude
  Emulsification activity (D610): 1.50
[1]; Prudhoe Crude
  Emulsification activity (D610): 1.58
[2]; Arabian Light Crude on sea water
  Oil displacement activity (diameter of the clearing zone): 6.7 ± 0.14 cm
[2]; Louisiana Crude on sea water
  Oil displacement activity (diameter of the clearing zone): 8.7 ± 0.35 cm
[2]; Prudhoe Bay Crude on sea water
  Oil displacement activity (diameter of the clearing zone): 7.5 cm

## CCCCCCOC(=O)CCCCCCCC=CCCCCCCC(C)OC1OC(CO)C(O)C(O)C1OC1OC(CO)C(O)C(O)C1O (centres unmarked) [Compound 16, SL-Hexyl Ester]
[3]; 94% deionized water
  size of droplets within the emulsion: 2.5 μm
[3]
  appearance of the emulsion: completely opaque
[4]; lemon oil emulsions, after one month
  average droplet sizes after one month: below 1 μm
[4]; lemon oil/water 1/99, sonication 60 sec, 0.25 weight-%, 1 Month
  Emulsion Droplet Size: 138 nm
[4]; lemon oil/water 1/99, sonication 60 sec, 0.25 weight-%, 1 Week
  Emulsion Droplet Size: 200 nm
[4]; lemon oil/water 1/99, sonication 60 sec, 1 weight-%, 1 Month
  Emulsion Droplet Size: 52 nm
[4]; lemon oil/water 1/99, sonication 60 sec, 1 weight-%, 1 Week
  Emulsion Droplet Size: 22 nm
[4]; lemon oil/water 1/99, sonication 120 sec, 0.25 weight-%, 1 Month
  Emulsion Droplet Size: 105 nm
[4]; lemon oil/water 1/99, sonication 120 sec, 0.25 weight-%, 1 week
  Emulsion Droplet Size: 149 nm
[4]; [5]
  Emulsion Droplet Size, bottom emulsion layer: 82 nm
  Emulsion Droplet Size, top emulsion layer: 287 nm
[4]; lemon oil/water 1/99, sonication 120 sec, 0.5 wt %, 1 Week
  Emulsion Droplet Size: 255 nm
[4]; lemon oil/water 1/99, sonication 120 sec, 1 weight-%, 1 Month
  Emulsion Droplet Size: 26 nm
[4]; lemon oil/water 1/99, sonication 120 sec, 1 weight-%, 1 Week
  Emulsion Droplet Size: 20 nm
[4]; [6]
  Emulsion Droplet Size, bottom emulsion layer: 177 nm
  Emulsion Droplet Size, top emulsion layer: 506 nm
[4]; lemon oil/water 5/95, sonication 60 sec, 0.25 weight-%, 1 week
  Emulsion Droplet Size: 330 nm
[4]; [7]
  Emulsion Droplet Size, bottom emulsion layer: 32 nm
  Emulsion Droplet Size, top emulsion layer: 471 nm
[4]; [8]
  Emulsion Droplet Size, bottom emulsion layer: 112 nm
  Emulsion Droplet Size, top emulsion layer: 313 nm
[4]; [9]
  Emulsion Droplet Size, bottom emulsion layer: 166 nm
  Emulsion Droplet Size, top emulsion layer: 450 nm
[4]; lemon oil/water 5/95, sonication 120 sec, 0.25 weight-%, 1 week
  Emulsion Droplet Size: 325 nm
[4]; [10]
  Emulsion Droplet Size, bottom emulsion layer: 120 nm
  Emulsion Droplet Size, top emulsion layer: 505 nm
[4]; [11]
  Emulsion Droplet Size, bottom emulsion layer: 29 nm
  Emulsion Droplet Size, top emulsion layer: 320 nm
[4]; [12]
  Emulsion Droplet Size, bottom emulsion layer: 25 nm
  Emulsion Droplet Size, top emulsion layer: 518 nm
[4]; [13]
  Emulsion Droplet Size, bottom emulsion layer: 246 nm
  Emulsion Droplet Size, top emulsion layer: 336 nm
